Assay results published in patent publication US8680113B2, “BMI-1 protein expression modulators” (PTC Therapeutics, Inc., priority 2008, dated 2014).

System: Bmi-1
Experiment: Sandwich ELISA Assay (Bmi-1 ELISA in HT-1080 cells)
Assay type: cell-based, human
Description: Cell Seeding and Compound Treatment (Day 1):
HT-1080 cells were seeded at 8000 cells/well (50 uL) in 96-well tissue culture plates. After the cells become adherent (3-4 hours), 2× diluted stocks of compounds in 50 uL DMEM containing 1% DMSO (final DMSO concentration was 0.5%) were added and the plates were incubated at 37° C. under 5% CO2 for 40-48 hours
ELISA Plate First Antibody Preparation (Day 2):
The First Antibody (Millipore Mouse, monoclonal to mouse Bmi-1, clone F6, catalog #05-637) diluted to 2 ug/mL in PBS was added (100 uL) to each well of a Nunc MaxiSorp 96-well ELISA plate. The plate was covered with a plate seal and allowed to stand overnight.
Cell Lysate Preparation (Day 3):
Fresh 1× Lysis buffer was prepared on the day of the assay as follows: 1 mM EDTA, 150 mM NaCl, 0.5% Triton-X 100, 10 mM NaF, 20 mM B-Glycerophosphate, 1 mM DTT (in PBS, pH 7.2-7.4) and 1×HALT protease inhibitor cocktail (Pierce #78410).
1× Lysis Buffer (40 uL) was added to each well and the plate was shaken for 5-10 minutes on an orbital shaker to allow cell lysis, then Diluent (1% BSA in PBS in 0.5% NP40) (100 uL) was added to each well.
The Bmi-1 standard curve was prepared in Diluent at the following concentrations of protein: 8000, 4000, 2000, 1000, 500, 250, 125, 0 pg/mL The Bmi-1 Recombinant Protein Standard (Novus Biologicals PCGF4 Recombinant Protein (P01), catalog #H00000648-P01) used in the standard curve was stored at −80° C., and on first thaw, diluted to 10 ug/uL in Blocking Buffer (1% BSA in PBS; BSA: Fisher Scientific Catalog #1600-100) before being aliquoted and refrozen at −80° C. Aliquots can be kept at 4° C. and reused after first thaw, but only for 1-2 weeks. The Bmi-1 Recombinant Protein Standard contains a GST-fusion tag and thus will show up on western blots around 70 Kda.
The prepared ELISA plate was washed 3× with Wash Buffer (0.05% Tween-20 in PBS). The final wash was removed from the plate and the plate was blotted dry on paper towels. Blocking Buffer (300 uL) (1% BSA in PBS) was added per well. The plate was covered with a plate seal and incubated at room temperature for 1 hour. The blocked plate was washed 3× with Wash Buffer, the final wash was removed and the plate was blotted dry on paper towels. The previously prepared samples and standards were added (at 100 uL/well) and the plate was covered with a plate seal and incubated at 4° C. overnight.
The prepared ELISA plate was removed from 4° C., incubated at room temperature for 30 minutes, then washed and blotted dry as previously described for Day 3. The Second Antibody (Cell Signaling Rabbit anti-Bmi-1, Cat#2830) diluted to 1:600 in Blocking Buffer was added (100 uL) to each well, except as needed for background control wells. The plate was covered with a plate seal and incubated for 1.5 hrs at room temperature.
The ELISA plate was washed and blotted dry as previously described. The Third Antibody (Cell Signaling HRP conjugated anti-rabbit IgG (CellSignaling, Cat#:7074) diluted to 1:300 in Blocking Buffer was added (100 uL) to each well, except as needed for background control wells. The plate was incubated for 1 hr at room temperature.
The plate was washed and blotted dry as previously described, then prepared TMB substrate (TMB substrate kit, Pierce catalog #34021) (prepared by mixing kit reagents 1:1) (100 uL) was added per well. The plate was incubated for 20-30 minutes at room temperature in the dark, then Stop Solution (2 M sulfuric acid in water) (50 uL) was added per well. The plates were read at OD450 (experimental) and OD570 (reference).

Row | Molecule | IC50 [nM]
1 | 1-(3-{[4-(6-fluoro-2-methylimidazo[1,2-a]pyridin-3-yl)-1,3-thiazol-2-yl]amino}phenyl)ethanone [Cpd 238] | < 500
2 | 1-(4-{[4-(imidazo[1,2-a]pyrimidin-3-yl)pyrimidin-2-yl]amino}phenyl)ethanone [Cpd 258] | < 500
3 | CCOc1ccc(Nc2nc(-c3c(C)nc4ncccn34)cs2)cc1 [Cpd 13, N-(4-ethoxyphenyl)-4-(2-methylimidazo[1,2-a]pyrimidin-3-yl)thiazol-2-amine] | < 500
4 | COc1ccc(Nc2nc(-c3c(C)nc4cc(C)ccn34)cs2)cc1 [Cpd 17, 4-(2,7-dimethylimidazo[1,2-a]pyridin-3-yl)-N-(4-methoxyphenyl)thiazol-2-amine] | < 500
5 | COc1cc(Cl)c(Nc2nc(-c3c(C)nc4ncccn34)cs2)c(Cl)c1 [Cpd 19, N-(2,6-dichloro-4-methoxyphenyl)-4-(2-methylimidazo[1,2-a]pyrimidin-3-yl)thiazol-2-amine] | 500 to 1000
6 | COc1cc(F)c(Nc2nc(-c3c(C)nc4ncccn34)cs2)c(F)c1 [Cpd 20, N-(2,6-difluoro-4-methoxyphenyl)-4-(2-methylimidazo[1,2-a]pyrimidin-3-yl)thiazol-2-amine] | 1000 to 3000
7 | Cc1cc(Br)c(Nc2nc(-c3c(C)nc4ncccn34)cs2)c(Br)c1 [Cpd 21, N-(2,6-dibromo-4-methylphenyl)-4-(2-methylimidazo[1,2-a]pyrimidin-3-yl)thiazol-2-amine] | < 500
8 | Cc1nc2ncccn2c1-c1csc(Nc2c(Br)cc(Br)cc2Br)n1 [Cpd 22, 4-(2-methylimidazo[1,2-a]pyrimidin-3-yl)-N-(2,4,6-tribromophenyl)thiazol-2-amine] | < 500
9 | COCCOc1cc(Br)c(Nc2nc(-c3c(C)nc4ncccn34)cs2)c(Br)c1 [Cpd 23, N-(2,6-dibromo-4-(2-methoxyethoxy)phenyl)-4-(2-methylimidazo[1,2-a]pyrimidin-3-yl)thiazol-2-amine] | 1000 to 3000
10 | Cc1ccn2c(-c3csc(Nc4cccc(O)c4)n3)c(C)nc2c1 [Cpd 31, 3-{[4-(2,7-dimethylimidazo[1,2-a]pyridin-3-yl)-1,3-thiazol-2-yl]amino}phenol] | < 500
11 | Cc1ccc(Nc2nc(-c3c(C)nc4cc(C)ccn34)cs2)cc1 [Cpd 32, 4-(2,7-dimethylimidazo[1,2-a]pyridin-3-yl)-N-(4-methylphenyl)-1,3-thiazol-2-amine] | < 500
12 | CC(=O)c1ccc(Nc2nc(-c3c(C)nc4cc(C)ccn34)cs2)cc1 [Cpd 33, 1-(4-{[4-(2,7-dimethylimidazo[1,2-a]pyridin-3-yl)-1,3-thiazol-2-yl]amino}phenyl)ethanone] | < 500
13 | CC(=O)c1ccc(Nc2nc(-c3c(C)nc4ncccn34)cs2)cc1 [Cpd 34, 1-(4-{[4-(2-methylimidazo[1,2-a]pyrimidin-3-yl)-1,3-thiazol-2-yl]amino}phenyl)ethanone] | < 500
14 | Cc1nc2ccccn2c1-c1csc(Nc2cccc(O)c2)n1 [Cpd 35, 3-{[4-(2-methylimidazo[1,2-a]pyridin-3-yl)-1,3-thiazol-2-yl]amino}phenol] | < 500
15 | Cc1nc2ccccn2c1-c1csc(Nc2ccc(O)cc2)n1 [Cpd 36, 4-{[4-(2-methylimidazo[1,2-a]pyridin-3-yl)-1,3-thiazol-2-yl]amino}phenol] | < 500
16 | Cc1nc2ncccn2c1-c1csc(Nc2ccc3c(c2)OCO3)n1 [Cpd 37, N-(1,3-benzodioxol-5-yl)-4-(2-methylimidazo[1,2-a]pyrimidin-3-yl)-1,3-thiazol-2-amine] | < 500
17 | Cc1nc2ncccn2c1-c1csc(Nc2c(Cl)cccc2Cl)n1 [Cpd 38, N-(2,6-dichlorophenyl)-4-(2-methylimidazo[1,2-a]pyrimidin-3-yl)-1,3-thiazol-2-amine] | < 500

Row | Molecule | IC50 [nM]
18 | Cc1nc2ncccn2c1-c1csc(N(C)c2ccc3c(c2)OCO3)n1 [Cpd 40, N-(1,3-benzodioxol-5-yl)-N-methyl-4-(2-methylimidazo[1,2-a]pyrimidin-3-yl)-1,3-thiazol-2-amine] | < 500
19 | Cc1nc2ccccn2c1-c1csc(Nc2ccc(N(C)C)cc2)n1 [Cpd 41, N,N-dimethyl-N′-[4-(2-methylimidazo[1,2-a]pyridin-3-yl)-1,3-thiazol-2-yl]benzene-1,4-diamine] | < 500
20 | Cc1nc2ncccn2c1-c1ccnc(Nc2ccc(N(C)C)cc2)n1 [Cpd 43, N,N-dimethyl-N′-[4-(2-methylimidazo[1,2-a]pyrimidin-3-yl)pyrimidin-2-yl]benzene-1,4-diamine] | < 500
21 | COc1ccc(Nc2nc(-c3c(C)nc4ccccn34)cs2)cc1 [Cpd 44, N-(4-methoxyphenyl)-4-(2-methylimidazo[1,2-a]pyridin-3-yl)-1,3-thiazol-2-amine] | < 500
22 | COc1ccc(Nc2nc(-c3c(C)nc4ncccn34)cs2)cc1F [Cpd 45, N-(3-fluoro-4-methoxyphenyl)-4-(2-methylimidazo[1,2-a]pyrimidin-3-yl)-1,3-thiazol-2-amine] | < 500
23 | COc1ccc(Nc2nc(-c3c(C)nc4ncccn34)cs2)cc1Cl [Cpd 46, N-(3-chloro-4-methoxyphenyl)-4-(2-methylimidazo[1,2-a]pyrimidin-3-yl)-1,3-thiazol-2-amine] | < 500
24 | COc1ccc(N(C)c2nccc(-c3c(C)nc4ncccn34)n2)cc1 [Cpd 47, N-(4-methoxyphenyl)-N-methyl-4-(2-methylimidazo[1,2-a]pyrimidin-3-yl)pyrimidin-2-amine] | < 500
25 | Cc1nc2ncccn2c1-c1csc(Nc2ccc(Br)cc2)n1 [Cpd 48, N-(4-bromophenyl)-4-(2-methylimidazo[1,2-a]pyrimidin-3-yl)-1,3-thiazol-2-amine] | < 500
26 | COc1ccc(Nc2nc(-c3c(C)nc4ccccn34)cs2)cc1Cl [Cpd 50, N-(3-chloro-4-methoxyphenyl)-4-(2-methylimidazo[1,2-a]pyridin-3-yl)-1,3-thiazol-2-amine] | < 500
27 | COc1ccc(Nc2nc(-c3c(C)nc4ccccn34)cs2)cc1F [Cpd 51, N-(3-fluoro-4-methoxyphenyl)-4-(2-methylimidazo[1,2-a]pyridin-3-yl)-1,3-thiazol-2-amine] | < 500
28 | COCCOc1ccc(Nc2nc(-c3c(C)nc4ccccn34)cs2)cc1 [Cpd 52, N-[4-(2-methoxyethoxy)phenyl]-4-(2-methylimidazo[1,2-a]pyridin-3-yl)-1,3-thiazol-2-amine] | < 500
29 | Cc1nc2ccccn2c1-c1csc(Nc2ccc(I)cc2)n1 [Cpd 53, N-(4-iodophenyl)-4-(2-methylimidazo[1,2-a]pyridin-3-yl)-1,3-thiazol-2-amine] | < 500
30 | COCCOc1cc(Br)c(Nc2nc(-c3c(C)nc4ccccn34)cs2)c(Br)c1 [Cpd 54, N-[2,6-dibromo-4-(2-methoxyethoxy)phenyl]-4-(2-methylimidazo[1,2-a]pyridin-3-yl)-1,3-thiazol-2-amine] | < 500
31 | CC(=O)c1ccc(Nc2nc(-c3c(C)nc4ccccn34)cs2)cc1 [Cpd 55, 1-(4-{[4-(2-methylimidazo[1,2-a]pyridin-3-yl)-1,3-thiazol-2-yl]amino}phenyl)ethanone] | < 500
32 | Cc1nc2ccccn2c1-c1csc(Nc2ccc3c(c2)OCO3)n1 [Cpd 56, N-(1,3-benzodioxol-5-yl)-4-(2-methylimidazo[1,2-a]pyridin-3-yl)-1,3-thiazol-2-amine] | < 500
33 | COc1cc(F)c(Nc2nc(-c3c(C)nc4ccccn34)cs2)c(F)c1 [Cpd 57, N-(2,6-difluoro-4-methoxyphenyl)-4-(2-methylimidazo[1,2-a]pyridin-3-yl)-1,3-thiazol-2-amine] | < 500
